# Experimental data as given in paper PMC3440086, “Profiling Environmental Chemicals for Activity in the Antioxidant Response Element Signaling Pathway Using a High Throughput Screening Approach” (Environmental Health Perspectives, 2012).
# “Also recorded” adds a separate entry of the source. Counter-ions that a name gives are not always drawn. Like-named read-outs stand apart in the source and are kept apart here.
# How the values were obtained:
# [1] = tested on: antioxidant response element (ARE) signaling pathway; test: ARE-bla β-lactamase reporter gene assay in HepG2 cells (qHTS); type: cell-based, human; details: for EC50: read-out: ARE-bla EC50
# [2] = tested on: Nrf2-dependent ARE transcriptional activity; test: ARE-luc luciferase reporter gene assay in HepG2 cells (qHTS); type: cell-based; set-up: Emax: reference not given here; details: for EC50: read-out: ARE-luc EC50
# [3] = tested on: mutated ARE; type: cell-based
# [4] = tested on: mitogen-activated protein kinase (MAPK) pathway; details: cited from earlier work
# [5] = tested on: olfactory mucosa; set-up: method as in Genter et al. 2002; details: olfactory mucosa of treated rats; ref Genter et al. 2002; cited from earlier work
# [6] = tested on: ROS; set-up: method as in Chen et al. 2009; details: cell-based testing; ref Chen et al. 2009; cited from earlier work
# [7] = tested on: hypoxia-inducible factor 1; set-up: method as in Xia et al. 2009; details: β-lactamase reporter gene assay; ref Xia et al. 2009; cited from earlier work
# [8] = Homo sapiens, HepG2, read-out: ARE-bla Efficacy
# [9] = Homo sapiens, HepG2, read-out: ARE-luc Efficacy
# [10] = Homo sapiens, HepG2, confirmation/follow-up studies, activation of ARE reporter as % of positive control (β-napthoflavone), read-out: ARE-bla Efficacy
# [11] = Homo sapiens, confirmation/follow-up studies, HepG2, 16 hr exposure, mean ± SD
# [12] = Homo sapiens, HepG2, confirmation/follow-up studies, activation of ARE reporter as % of positive control (β-napthoflavone), read-out: ARE-luc Efficacy
# [13] = confirmation/follow-up studies, HepG2, mean ± SD
# [14] = follow-up studies, up to 46 µM, listed as iodochlorohydroxyquinoline
# [15] = confirmation/follow-up studies, HepG2, 16 hr exposure, mean ± SD
# [16] = follow-up studies, up to 46 µM, listed as quinoline
# [17] = confirmation/follow-up studies, activation of ARE reporter as % of positive control (β-napthoflavone)
# [18] = primary qHTS screening, 0.59 nM to 92 µM
# [19] = confirmation/follow-up studies, […]
smiles,measurement,setting,value
Oc1cccc2cccnc12 [8-Hydroxyquinoline],activity in ARE-bla assay (words),[1],active; also recorded: demonstrated activity
same,EC50,"[1]; Homo sapiens, HepG2, 16 h",16.1 ± 5.1 µM
same,Emax,[1]; [8],53%
same,activity in ARE-luc assay (words),[2],active; also recorded: demonstrated activity
same,EC50,"[2]; Homo sapiens, HepG2, 16 h",10.1 ± 3.9 µM
same,Emax,[2]; [9],200%
same,ARE-bla mutant IC50,[3],inactive
same,induction of MAPK pathway,[4],shown to induce
CCc1cccc(CC)c1N(COC)C(=O)CCl [Alachlor],Emax,[1]; [10],106%
same,EC50,[1]; [11],5.9 ± 1.7 µM
same,activity in ARE-bla assay (words),"[1]; follow-up studies, up to 46 µM",active; also recorded: demonstrated activity
same,Emax,[2]; [12],127%
same,EC50,[2]; [11],19.9 ± 7.1 µM
same,activity in ARE-luc assay (words),"[2]; follow-up studies, up to 46 µM",active; also recorded: demonstrated activity
same,genes associated with the generation of ROS and resulting oxidative damage,[5],up-regulation
same,ARE-bla mutant IC50,[3]; [13],inactive
Oc1c(I)cc(Cl)c2cccnc12 [Iodochlorohydroxyquinoline],generation of ROS,[6],confirmed
same,Emax,[1]; [10],41%
same,EC50,[1]; [11],17.2 ± 6 µM
same,activity in ARE-bla assay (words),"[1]; follow-up studies, up to 46 µM",active
same,activity in ARE-bla assay (words),[1]; [14],demonstrated activity
same,Emax,[2]; [12],147%
same,EC50,[2]; [11],10 ± 1.2 µM
same,activity in ARE-luc assay (words),"[2]; follow-up studies, up to 46 µM",active
same,activity in ARE-luc assay (words),[2]; [14],demonstrated activity
same,ARE-bla mutant Efficacy,"[3]; confirmation/follow-up studies, normalized to DMSO (0%) and ARE-bla maximal β-napthoflavone response (100%)",21%
same,activity in ARE-bla-mut assay (words),[3]; [14],may exhibit autofluorescence; also recorded: active; also recorded: demonstrated activity
same,activation of hypoxia-inducible factor 1,[7],activate
"CN(C)c1ccc(N=O)cc1 [N,N-Dimethyl-p-nitrosoaniline]",EC50,"[1]; Homo sapiens, HepG2, 16 h",9.9 ± 3.4 µM
same,Emax,[1]; [8],82%
same,EC50,"[2]; Homo sapiens, HepG2, 16 h",29.2 ± 2 µM
same,Emax,[2]; [9],626%
same,ARE-bla mutant IC50,[3],inactive
"CN(C)c1ccc(N)cc1 [N,N-Dimethyl-p-phenylenediamine]",Emax,"[1]; Homo sapiens, HepG2, confirmation/follow-up studies, […], read-out: ARE-bla Efficacy",80%
same,EC50,[1]; [11],9.6 ± 0.6 µM
same,Emax,"[2]; Homo sapiens, HepG2, confirmation/follow-up studies, […], read-out: ARE-luc Efficacy",24%
same,EC50,[2]; [11],11.8 ± 4.4 µM
same,ARE-bla mutant IC50,[3]; [13],inactive
CNc1ccc(O)cc1 [N-Methyl-p-aminophenol sulfate],Emax,[1]; [10],37%
same,EC50,[1]; [11],13.6 ± 3.2 µM
same,Emax,[2]; [12],202%
same,EC50,[2]; [11],24.6 ± 9.2 µM
same,ARE-bla mutant IC50,[3],inactive
NC(=S)Nc1ccccc1 [Phenylthiourea],ARE-bla EC50,[1]; [15],inactive
same,ARE-luc EC50,[2]; [15],inactive
same,ARE-bla mutant IC50,[3]; [13],inactive
c1ccc2ncccc2c1 [Quinoline],ARE-bla EC50,[1]; [15],inactive
same,activity in ARE-bla assay (words),"[1]; follow-up studies, up to 46 µM",inactive in all assays
same,activity in ARE-bla assay (words),[1]; [16],inactive across all assays
same,ARE-luc EC50,[2]; [15],inactive
same,activity in ARE-luc assay (words),"[2]; follow-up studies, up to 46 µM",inactive in all assays
same,activity in ARE-luc assay (words),[2]; [16],inactive across all assays
same,ARE-bla mutant IC50,[3],inactive
same,activity in ARE-bla-mut assay (words),[3],inactive across all assays; also recorded: inactive in all assays
"Clc1ccc(C(c2ccc(Cl)cc2)C(Cl)Cl)cc1 [Rhothane (TDE), Tetrachlorodiphenylethane]",EC50,[1]; [15],16.4 ± 7.3 µM
same,ARE-bla Efficacy,[1]; [17],43%
same,EC50,[2]; [15],13.5 ± 3.3 µM
same,ARE-luc Efficacy,[2]; [17],32%
same,activity in ARE-luc assay (words),"[2]; follow-up studies, up to 46 µM",active
same,activity in ARE-luc assay (words),[2]; [18],inactive
same,ARE-bla mutant IC50,[3]; [13],inactive
C[C@H](CCC(=O)[O-])[C@H]1CC[C@H]2[C@@H]3[C@H](O)C[C@@H]4C[C@H](O)CC[C@]4(C)[C@H]3C[C@H](O)[C@]12C.[Na+] [Sodium Cholate],ARE-bla EC50,[1]; [15],inactive
same,ARE-luc EC50,[2]; [15],inactive
same,ARE-bla mutant IC50,[3]; [13],inactive
O=c1n(CC2CO2)c(=O)n(CC2CO2)c(=O)n1CC1CO1 (stereo not drawn) [Teroxironum],ARE-bla Efficacy,[1],119
same,EC50,[1],5.9 ± 1.9 µM
same,ARE-luc Efficacy,[2],1541
same,EC50,[2],27.1 ± 1.8 µM
same,ARE-bla mutant IC50,[3],inactive
C=CC(=O)OCCOCCOCCOCCOC(=O)C=C [Tetraethylene glycol diacrylate],Emax,[1]; [10],53%
same,EC50,[1]; [11],9.5 ± 4.8 µM
same,Emax,[2]; [12],288%
same,EC50,[2]; [11],29.2 ± 2 µM
same,ARE-bla mutant IC50,[3]; [13],inactive
CN(C)C(=S)SSC(=S)N(C)C [Tetramethylthiuram disulfide],EC50,[1]; [15],17.2 ± 4.9 µM
same,ARE-bla Efficacy,[1]; [19],35%
same,EC50,[2]; [15],30.6 ± 5.2 µM
same,ARE-luc Efficacy,[2]; [19],265%
same,ARE-bla mutant IC50,[3]; [13],inactive
"CC(C)CC(C)Nc1ccc(Nc2ccccc2)cc1 (stereo not drawn) [n-(1,3-Dimethylbutyl)-n`-phenyl-p-phenylenediamine]",Emax,[1]; [10],89%
same,EC50,[1]; [11],17.3 ± 5 µM
same,activity in ARE-luc assay (words),"[2]; follow-up studies, up to 46 µM",inactive
same,activity in ARE-luc assay (words),[2]; [18],active
same,ARE-bla mutant IC50,[3]; [13],inactive
Nc1ccccc1O [o-Aminophenol],EC50,"[1]; Homo sapiens, HepG2, 16 h",6.8 ± 4.1 µM
same,Emax,[1]; [8],95%
same,EC50,"[2]; Homo sapiens, HepG2, 16 h",26.2 ± 3.3 µM
same,Emax,[2]; [9],234%
same,ARE-bla mutant IC50,[3],inactive
Nc1ccccc1N [o-Phenylenediamine],EC50,[1]; [15],7.2 ± 4.1 µM
same,ARE-bla Efficacy,[1]; [19],72%
same,EC50,[2]; [15],27.3 ± 4.7 µM
same,ARE-luc Efficacy,[2]; [19],151%
same,ARE-bla mutant IC50,[3]; [13],inactive
"ClC(Cl)=C(c1ccc(Cl)cc1)c1ccc(Cl)cc1 [p,p' -DDE, Dichlorodiphenyl dichloroethylene]",ARE-bla EC50,[1]; [15],inactive
same,ARE-luc EC50,[2]; [15],inactive
same,ARE-bla mutant IC50,[3]; [13],inactive
O=Nc1ccc(Nc2ccccc2)cc1 [p-Nitrosodiphenylamine],ARE-bla Efficacy,[1],31
same,EC50,[1],9.7 ± 4.1 µM
same,ARE-luc Efficacy,[2],71
same,EC50,[2],21.7 ± 3.7 µM
same,ARE-bla mutant IC50,[3],inactive
